How the values were obtained:
Assay in all cases: relative viability (nuclei count vs DMSO), 5 days (fraction); higher = more cells survive
VE-821 = compound: CS(=O)(=O)c1ccc(-c2cnc(N)c(C(=O)Nc3ccccc3)n2)cc1 [VE-821]
Summary of the method: (§1)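 Hoechst staining, done together with fixation and permeabilisation, marked nuclei for 4× imaging and MetaXpress counting. This followed 5 days without medium change after lung cancer cell lines, kept overnight at 37 °C in 1536-well plates, were pinned with five library-drug doses (not always all listed) spaced by √10 on vehicle-anchored plates. Viability is the ratio of treated-well to vehicle-well nuclei, expressed as a median across plates. Plates passed only at control CV below 25% with at least one doubling.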

Ruxolitinib = compound: N#CC[C@H](C1CCCC1)n1cc(-c2ncnc3[nH]ccc23)cn1 [Ruxolitinib]
Summary of the method: as §1

Vismodegib = compound: CS(=O)(=O)c1ccc(C(=O)Nc2ccc(Cl)c(-c3ccccn3)c2)c(Cl)c1 [Vismodegib]
Summary of the method: as §1

VE-821 + Alpelisib = compound: CS(=O)(=O)c1ccc(-c2cnc(N)c(C(=O)Nc3ccccc3)n2)cc1 [VE-821] + Cc1nc(NC(=O)N2CCC[C@H]2C(N)=O)sc1-c1ccnc(C(C)(C)C(F)(F)F)c1 [Alpelisib] (partner 2 µM)
Summary of the method: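 Lung cancer cell lines were pin-tool dosed in 1536-well plates on the day after seeding, with either a lone drug or a fixed anchor-drug dose plus five library-drug doses (not always all listed) in √10 steps. Nuclei were counted on 4× images after 5 days. Relative viability is the ratio of treated-well to vehicle-well nuclei counts, with each value a median of duplicate plates.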

| Cell Line | relative viability (VE-821; 0.08 µM) | relative viability (VE-821; 0.253 µM) | relative viability (VE-821; 0.8 µM) | relative viability (VE-821; 2.53 µM) | relative viability (VE-821; 8 µM) | relative viability (Ruxolitinib; 0.08 µM) | relative viability (Ruxolitinib; 0.253 µM) | relative viability (Ruxolitinib; 0.8 µM) | relative viability (Ruxolitinib; 2.53 µM) | relative viability (Ruxolitinib; 8 µM) | relative viability (Vismodegib; 0.08 µM) | relative viability (Vismodegib; 0.253 µM) | relative viability (Vismodegib; 0.8 µM) | relative viability (Vismodegib; 2.53 µM) | relative viability (Vismodegib; 8 µM) | relative viability (VE-821 + Alpelisib; first compound 0.08 µM) | relative viability (VE-821 + Alpelisib; first compound 0.253 µM) | relative viability (VE-821 + Alpelisib; first compound 0.8 µM) | relative viability (VE-821 + Alpelisib; first compound 2.53 µM) | relative viability (VE-821 + Alpelisib; first compound 8 µM) |
| --- | --- | --- | --- | --- | --- | --- | --- | --- | --- | --- | --- | --- | --- | --- | --- | --- | --- | --- | --- | --- |
| NCI-H1734 | 1.07 | 0.989 | 0.964 | 1.03 | 0.656 | 0.962 | 0.914 | 1.15 | 0.879 | 0.942 | 0.966 | 0.954 | 0.951 | 0.993 | 0.961 | 0.804 | 0.745 | 0.468 | 0.758 | 0.553 |
| CAL-12T | 1.02 | 0.947 | 1.04 | 0.927 | 0.844 | 0.918 | 0.997 | 1.11 | 0.792 | 0.696 | 1.01 | 0.955 | 0.976 | 0.945 | 0.959 | 1.22 | 1.08 | 1.37 | 1.32 | 0.837 |
| NCI-H1993 | 0.92 | 0.844 | 0.916 | 0.929 | 0.692 | 0.872 | 0.774 | 1.04 | 1 | 0.771 | 0.807 | 0.916 | 0.859 | 0.875 | 0.87 | 0.704 | 0.757 | 0.655 | 0.702 | 0.633 |
| NCI-H1755 | 1.04 | 0.966 | 0.905 | 0.957 | 0.873 | 0.974 | 0.989 | 1.03 | 0.916 | 0.825 | 0.983 | 0.982 | 1.01 | 1 | 0.982 | 1.01 | 0.887 | 0.622 | 0.946 | 0.62 |
| SK-LU-1 | 1.08 | 1.06 | 0.942 | 0.841 | 0.569 | 1.01 | 1.08 | 1.12 | 0.966 | 0.907 | 1 | 0.997 | 1.07 | 0.943 | 1.04 | 1.02 | 0.964 | 0.803 | 0.499 | 0.328 |
| NCI-H358 | 1.05 | 0.964 | 0.936 | 1.08 | 0.803 | 0.848 | 0.921 | 0.889 | 0.537 | 0.63 | 0.945 | 0.989 | 0.973 | 0.911 | 0.921 | 1.04 | 0.999 | 0.904 | 0.838 | 0.605 |
| NCI-H1793 | 0.996 | 0.744 | 0.747 | 1.16 | 0.713 | 0.972 | 0.928 | 1.12 | 0.946 | 0.699 | – | 0.857 | 0.96 | 0.904 | 0.784 | 0.689 | 0.681 | 0.497 | 0.727 | 0.687 |
| HCC-78 | 1.1 | 0.863 | 0.887 | 1.04 | 0.756 | 0.831 | 0.717 | 0.869 | 0.853 | 0.743 | 0.82 | 0.914 | 0.875 | 0.902 | 0.865 | 0.448 | 0.289 | 0.217 | 0.394 | 0.229 |
